Data set [1] concerns THP-1 macrophages. Kind of data set: Intracellular delivery of Alexa 647-labeled IgG-peptide conjugates to THP-1 macrophages. The note with it: for intracellularly delivered amount into macrophages: final concentration 1 µM, compared with R001, R005 conjugates, FIG. 14; for intracellularly delivered amount into macrophages / intracellular delivery amount of IgG: uptake time 1 h; for intracellular delivery amount of IgG: final concentration 5 µM, versus IgG, FIG. 12, FIG. 13; for cell-type-selective plasma membrane-penetrating activity: macrophages versus A549 cells, 1 µM, FIG. 16. The class given is cell-based. The source says:
The reaction liquid was applied to a Zeba spin desalting column (7K MWCO) equilibrated with PBS, and an unreacted cross-linking agent was removed. Thus, an IgG fraction was recovered. The peptides (synthesized by Eurofins Genomics K.K., the amino acid sequences of the peptides that are each conjugated with the IgG are shown in the following table) obtained by the above-mentioned screening, the peptides each including an amino acid sequence and each having C at its N-terminal, were each dissolved in DMSO so that a 10 mM DMSO solution was obtained. The DMSO solution of the peptide whose molar amount was 5 times as large as that of the IgG was added to the recovered IgG fraction, and EDTA was further added to the mixture so that its final concentration was 1 mM, followed by stirring by inversion at 25°C for 1 hour. After that, a fivefold molar amount of cysteine was added to the mixture, and the whole was stirred by inversion at 25°C for 30 minutes. The reaction liquid was applied to a Zeba spin desalting column (7K MWCO) equilibrated with PBS, and the peptide and cysteine that were unreacted, and EDTA were removed. Thus, an IgG-peptide conjugate was recovered.
The assay was conducted using THP-1 macrophages, which had been seeded in a 96-well plate at 20,000 cells/well, and had already been activated with PMA, IFN γ, and LPS. […] Images acquired with the all-in-one fluorescence microscope BZ-X810 (Keyence Corporation) were analyzed using the accompanying software BZ-X800 Analyzer. The uptake ratio at an uptake time of 1 h was compared based on the ratio of integrated red fluorescence intensity to integrated blue fluorescence intensity.
The uptake ratios of the proteins at an uptake time of 1 hour, which were each determined from the ratio of the brightness (integrated) of a red color to the brightness (integrated) of a blue color, were compared to each other.

For data set [2], the system named is A549 cells. Nature of the data set: Intracellular delivery of Alexa 647-labeled IgG-peptide conjugates to A549 cells. The format is cell-based. The note with it: for cell-type-selective plasma membrane-penetrating activity: A549 cells versus macrophages, 1 µM, FIG. 16; for intracellularly delivered amount into A549 cells: final concentration 1 µM, uptake time 1 h, compared with T001, T006 conjugates, FIG. 15. Here is the method:
Cells 1 hour after the addition of the protein solution were observed and photographed with an all-in-one fluorescence microscope BZ-X810 (Keyence Corporation) in the same manner as in Experimental Example 14 except that A549 cells cultured in the same manner as in Experimental Example 11 were used, followed by image analysis with software BZ-X800 Analyzer included therein. The uptake ratios of the proteins at an uptake time of 1 hour, which were each determined from the ratio of the brightness (integrated) of a red color to the brightness (integrated) of a blue color, were compared to each other. The results are shown in FIG. 15 (in the figure, the height of a bar represents the average of "n" values (n=2 to 3) and an error bar represents its standard deviation).

Data set [3] relates to three-dimensional skin model EpiDerm Full Thickness 400.
Method: A three-dimensional skin model EpiDerm Full Thickness 400 was prepared in accordance with the manual of its manufacturer in the same manner as in Experimental Example 8. […] As a control, the known cell-penetrating peptide TAT (the sequence obtained by removing C at the N-terminal from the amino acid sequence shown in SEQ ID NO: 51) was used, and the N-terminal side thereof was modified with FAM (similarly synthesized by Eurofins Genomics K.K., theoretical molecular weight: 1,979.2).
100 Microliters of a 1% DMSO-containing PBS solution of each of the FAM-modified peptides was added to a central portion on the donor side of a cup in which the skin model was built to initiate the penetrability assay (n=3). After incubation at 37 °C under 5% CO2 for 24 h, the medium outside the cup was collected, and the concentration of peptide that penetrated the skin model was quantified fluorometrically using a microplate reader (TECAN Spark; excitation wavelength: 494 nm, emission wavelength: 521 nm).

Primed or numbered codes have the meaning given here. No end group written: not given here. PEG8′ = PEG8 linker (eight-unit polyethylene glycol spacer); FAM = fluorescein amidite

In the case of CRWPLWMWFVW [T001], in data set [1], the “intracellularly delivered amount into macrophages” value is listed as “greater increase in the intracellularly delivered amount into macrophages”, the “intracellular delivery amount of IgG” value is “increased the intracellular delivery amount of IgG” and the “cell-type-selective plasma membrane-penetrating activity” value is “cell-type-selective plasma membrane-penetrating activity in macrophages”. On to CLFKAWLGVYH [R001], for which, in data set [2], the “cell-type-selective plasma membrane-penetrating activity” value is listed as “cell-type-selective plasma membrane-penetrating activity in A549 cells” and the “intracellularly delivered amount into A549 cells” value was “greater increase in the intracellularly delivered amount into A549 cells”. In the case of “FAM-labeled SEQ ID NO: 40 peptide: N-terminal side of the peptide represented by SEQ ID NO: 40 modified with fluorescein amidite (FAM) through a PEG8 linker ({FAM-PEG8′}-RWNCVSCAFL; cysteine pairing not given here)”, the “penetrability (ratio of penetrated amount outside the cup to added amount)” value in data set [3] turned out to be 49.8±10.0%. CRYYAHWLHYM [T006]: in data set [1], the “intracellularly delivered amount into macrophages” value was “greater increase in the intracellularly delivered amount into macrophages”, the “intracellular delivery amount of IgG” value was “increased the intracellular delivery amount of IgG” and the “cell-type-selective plasma membrane-penetrating activity” value is on record as “cell-type-selective plasma membrane-penetrating activity in macrophages”. Turning to CGKEGGSRWLIFHYMLLGG [T005], the “intracellular delivery amount of IgG” value in data set [1] was “increased the intracellular delivery amount of IgG”. Consider CGGSRVVSYLAEYH [R005], for which, in data set [2], the “cell-type-selective plasma membrane-penetrating activity” value is listed as “cell-type-selective plasma membrane-penetrating activity in A549 cells” and the “intracellularly delivered amount into A549 cells” value is given as “greater increase in the intracellularly delivered amount into A549 cells”. As to “CYGRKKRRQRRR (CYGRKKRRQRRR-NH2; also: conjugated to Alexa 647-IgG via maleimide-PEG2-NHS) [TAT, Alexa 647-labeled IgG bonded with known membrane-permeable peptide TAT via Maleimide-PEG2-NHS Ester, reference compound]”, the “intracellular delivery amount of IgG” value in data set [1] is “no increase in cellular translocation was observed”.
